Measured values taken from US20120045523A1, “COMBINATION OF A TLR3 LIGAND AND A CHEMOTHERAPY AGENT WHICH ACTS ON THE INTRINSIC "APOPTOSIS" PATHWAY IN THE TREATMENT OF CANCER” (UNIVERSITE CLAUDE BERNARD LYON I, priority 2008, published 2012).
pIC50: −log10 of the molar value. Like-named read-outs stand apart in the source and are kept apart here.

Key:
[1] = system: NCI-H292 cells; assay: Number of living cells (MTS, CellTiter 96 AQueous One) after chemotherapy and/or poly(I:C); details: for CI (combination index): agent in combination with poly(I:C), average CI; for nature of interaction with poly(I:C), from CI: combination with poly(I:C)
[2] = system: NCI-H1703 cells; assay: as above; assay type: cell-based, human; details: for CI (combination index): agent in combination with poly(I:C), average CI; for pIC50: chemotherapeutic agent used alone, 2 h exposure, then 70 h culture, read-out: IC50; for nature of interaction with poly(I:C), from CI: combination with poly(I:C); for cytotoxicity at 4 µM: NCI-H1703, NCI-H1703, FIG. 1B, read-out: loss of viable cells; for reduction of the number of living cells: FIG. 1A
[3] = system: NCI-H292 cells; assay: Annexin V-FITC/propidium iodide labeling, flow cytometry (apoptosis); assay type: cell-based, human; details: NCIH-292; annexin V after 24 h; concentrations at IC50; FIG. 4
Text: The duplexes of control small interfering RNA (siRNA; Dharmacon) and siRNA specific for caspase 8 and caspase 9 (Qiagen) used are as follows: 1) control: ON-TARGETplus siCONTROL Non-Targeting siRNA #3; caspase 8 sense 5′-r(GAG UCU GUG CCC AAA UCA A)dTdT-3′, caspase 8 antisense 5′-r(UUG AUU UGG GCA CAG ACU C)dTdT-3′; caspase 9 sense 5′-r(GAG UGG CUC CUG GUA CGU U)dTdT-3′, caspase 9 antisense 5′-r(AAC GUA CCA GGA GCC ACU C)dTdT-3′. The siRNAs were transfected by the HiPerFect (Qiagen) transfection reagent according to the manufacturer's recommendations. Briefly, NCI-H1703 or NCI-H292 cells are cultured in 100 mm dishes, dislodged by trypsin, placed in 24-well plates at a concentration of 50,000 cells in 400 μl of medium per well and incubated at 37° C. during preparation of the mixes. Mixes for each well of a 24-well plate are prepared as follows: the siRNA duplexes are diluted in 100 μl of serum-free and antibiotic-free culture medium, 3 μl of HiPerFect is added, and then the solution is vortexed and incubated for 5-10 min at room temperature. […] For these conditions, the effectiveness of caspase 8 and caspase 9 siRNAs in decreasing the level of expression of caspase 8 and caspase 9 proteins, respectively, were measured by western blot, and reaches roughly 85% for caspase 8 siRNA and 75% for caspase 9 siRNA. […]

[4] = system: NCI-H1703 cells; assay: as above; assay type: cell-based, human; details: for effect of 2 h exposure to agent before poly(I:C) on percentage of apoptotic cells: NCIH-1703, annexin V after 24 h, concentrations at IC50, FIG. 4
Text: The duplexes of control small interfering RNA (siRNA; Dharmacon) and siRNA specific for caspase 8 and caspase 9 (Qiagen) used are as follows: 1) control: ON-TARGETplus siCONTROL Non-Targeting siRNA #3; caspase 8 sense 5′-r(GAG UCU GUG CCC AAA UCA A)dTdT-3′, caspase 8 antisense 5′-r(UUG AUU UGG GCA CAG ACU C)dTdT-3′; caspase 9 sense 5′-r(GAG UGG CUC CUG GUA CGU U)dTdT-3′, caspase 9 antisense 5′-r(AAC GUA CCA GGA GCC ACU C)dTdT-3′. The siRNAs were transfected by the HiPerFect (Qiagen) transfection reagent according to the manufacturer's recommendations. Briefly, NCI-H1703 or NCI-H292 cells are cultured in 100 mm dishes, dislodged by trypsin, placed in 24-well plates at a concentration of 50,000 cells in 400 μl of medium per well and incubated at 37° C. during preparation of the mixes. Mixes for each well of a 24-well plate are prepared as follows: the siRNA duplexes are diluted in 100 μl of serum-free and antibiotic-free culture medium, 3 μl of HiPerFect is added, and then the solution is vortexed and incubated for 5-10 min at room temperature. 100 μl of mix is then added drop by drop to the cells and the mixture is homogenized by shaking the plate. The culture medium is changed the following day. The final siRNA concentration is 5 nM and treatment with poly(I:C) begins 72 h after transfection. For these conditions, the effectiveness of caspase 8 and caspase 9 siRNAs in decreasing the level of expression of caspase 8 and caspase 9 proteins, respectively, were measured by western blot, and reaches roughly 85% for caspase 8 siRNA and 75% for caspase 9 siRNA.
In relation to the mechanism of reduction of the number of living cells, the percentage of cells labeled with annexin V after culture after treatment with poly(I:C) was determined by flow cytometry. […] Seventy-two hours after transfection of the control (sictrl), caspase (sicasp8), caspase 9 (sicasp9) or caspase 8+caspase 9 (sicasp8+9) siRNAs, NCI-H1703 cells are treated with 100 μg/ml of poly(I:C) for 24 h or are not treated. The percentage of annexin V-positive cells is measured by flow cytometry. The results presented are the average of three experiments carried out independently. Error Bar, ±SE.
Poly(I:C) induces apoptosis of NSCLC NCIH-1703 and NCIH-292 cell lines. To determine whether the greater reduction in the number of cells alive after treatment with the combination of poly(I:C) and cisplatin or etoposide resulted at least partially from an increase in apoptosis, the cells were labeled with annexin V after 24 h of culture as described in the “Materials and methods” section above.

[5] = system: NCI-H1703 cells; assay: Viability of cells cultured 24 h with poly(I:C) and wortmannin; assay type: cell-based, human
Procedure: Similarly, a study was undertaken to determine the viability of cells of the NCI-H1703 human squamous cell lung cancer cell line cultured for 24 h in the presence of TLR3 ligand (poly(I:C), 100 μg/ml) at various concentrations (0 μM, 0.1 μM and 1.0 μM) of wortmannin, a specific PI3 kinase inhibitor.
In the same way, a study was undertaken to determine the percentage of cells of the NCI-H1703 human squamous cell lung cancer cell line in apoptosis (FACS analysis after labeling with annexin V-FITC/propidium iodide) after culture for 24 h in the presence of TLR3 ligand (poly(I:C), 100 μg/ml) with various concentrations (0 μM, 0.1 μM and 1.0 μM) of specific PI3 kinase inhibitor, wortmannin (WM). […] Moreover, the synergy is strong: with 1 μM wortmannin alone, 6% fewer living cells are observed after 24 h; with 100 μg/ml poly(I:C) alone, 26% fewer living cells are observed after 24 h; when both molecules are used in combination at these same concentrations, however, 71% fewer living cells are observed after 24 h.

[6] = system: TLR3; assay: Apoptosis induced by TLR3 ligands, with siRNA inhibition of receptors; assay type: cell-based
Text: “Specific TLR3 ligand” refers to a ligand that is recognized only by the TLR3 membrane receptor, and not by intracellular receptors such as RIG-I, MDA-5 and PKR. Examples of such a ligand includes the ligand poly(A:U) or specific synthetic double-stranded RNA, in contrast with poly(I:C) whose activity is based not only on its interaction with TLR3 but also by intracellular receptors, whereas poly(A:U) acts specifically on TLR3.

[7] = NCI-H292, chemotherapeutic agent used alone, 2 h exposure, then 70 h culture

Row | Compound | pIC50 ([1]; Homo sapiens, NCI-H292) | CI (combination index) ([1]; NCI-H292) | nature of interaction with poly(I:C), from CI ([1]; NCI-H292) | CI (combination index) ([2]; NCI-H1703) | nature of interaction with poly(I:C), from CI ([2]; NCI-H1703) | pIC50 ([2]; Homo sapiens, NCI-H1703) | further results
1 | O=c1[nH]cc(F)c(=O)[nH]1 [5-Fluouracile, 5-fluorouracil] | 3.88 | 0.78 ± 0.09 | moderate synergy |  |  |  | 
2 | N.N.[Cl][Pt][Cl] [Cisplatin, cisplatin] |  | 0.50 ± 0.08 | strong synergy | 0.62 ± 0.03 | strong synergy |  | pIC50 ([2]; NCI-H1703): 5.96; pIC50 [1, 7]: 5.47; effect of 2 h exposure to agent before poly(I:C) on percentage of apoptotic cells [3]: statistically significant only for the NCIH-292 cell line; effect of 2 h exposure to agent before poly(I:C) on percentage of apoptotic cells [4]: increases the percentage of apoptotic cells
3 | CC(=O)O[C@@]12CO[C@@H]1C[C@H](O)[C@@]1(C)C(=O)[C@H](O)C3=C(C)[C@@H](OC(=O)[C@H](O)[C@@H](NC(=O)OC(C)(C)C)c4ccccc4)C[C@@](O)([C@@H](OC(=O)c4ccccc4)[C@H]21)C3(C)C [Docetaxel, docetaxel] | 4.97 | 0.68 ± 0.2 | moderate synergy |  |  |  | 
4 | COc1cccc2c1C(=O)c1c(O)c3c(c(O)c1C2=O)C[C@@](O)(C(=O)CO)C[C@@H]3O[C@H]1C[C@H](N)[C@H](O)[C@H](C)O1 [Doxorubicin, doxorubicin] | 5.99 | 0.62 ± 0.08 | strong synergy | 0.72 ± 0.06 | strong synergy | 5.43 | 
5 | COc1cc([C@@H]2c3cc4c(cc3[C@@H](O[C@@H]3O[C@@H]5CO[C@@H](C)O[C@H]5[C@H](O)[C@H]3O)[C@H]3COC(=O)[C@H]23)OCO4)cc(OC)c1O [Etoposide, etoposide] | 4.73 | 0.68 ± 0.11 | strong synergy | 0.59 ± 0.06 | strong synergy | 4.49 | cytotoxicity at 4 µM ([2]; Homo sapiens, etoposide 4 μM, then addition of 60 μg/ml poly(I:C)): ~60%; cytotoxicity at 4 µM ([2]; Homo sapiens, etoposide alone 4 μM): ~25%; pIC50 ([1]; Homo sapiens, NCI-H292, read-out: concentration of etoposide in combination that decreases living cells by 50%): ~5.10; effect of 2 h exposure to agent before poly(I:C) on percentage of apoptotic cells [3]: significant additive effect; effect of 2 h exposure to agent before poly(I:C) on percentage of apoptotic cells [4]: significant additive effect
6 | Nc1ccn([C@@H]2O[C@H](CO)[C@@H](O)C2(F)F)c(=O)n1 [Gemcitabine, gemcitabine] | 6.22 | 1.3 ± 0.24 | antagonism | 1.0 ± 0.07 | additivity without synergy | 6.05 | 
7 | O=C1[O][Pt]2([NH][C@@H]3CCCC[C@H]3[NH]2)[O]C1=O [Oxaliplatin, oxaliplatin] |  |  | strong synergy |  | strong synergy |  | pIC50 ([2]; NCI-H1703): 3.77; pIC50 [1, 7]: 3.91
8 | CC(=O)O[C@H]1C(=O)[C@@]2(C)[C@H]([C@H](OC(=O)c3ccccc3)[C@]3(O)C[C@H](OC(=O)[C@H](O)[C@@H](NC(=O)c4ccccc4)c4ccccc4)C(C)=C1C3(C)C)[C@]1(OC(C)=O)CO[C@@H]1C[C@@H]2O [Paclitaxel, paclitaxel] | 6.68 | 0.71 ± 0.0064 | moderate synergy | 0.83 ± 0.012 | moderate synergy | 6.92 | 
9 | COC[C@H]1OC(=O)c2coc3c2[C@@]1(C)C1=C(C3=O)[C@@H]2CCC(=O)[C@@]2(C)C[C@H]1OC(C)=O [wortmannin] |  |  |  |  |  |  | fewer living cells ([5]; 1 μM wortmannin + 100 μg/ml poly(I:C) in combination): 71%; fewer living cells ([5]; 1 μM wortmannin alone): 6%
10 | polyadenylic-polyuridylic acid [poly(A:U)] |  |  |  |  |  |  | induction of apoptosis ([6]; cells sensitive to poly(I:C)): triggers apoptosis
11 | polyinosinic-polycytidylic acid [poly(I:C)] |  |  |  |  |  |  | reduction of the number of living cells ([2]; NCI-H1703, poly(I:C) 4 μg/ml after pre-incubation for 2 h with 20 μM etoposide): ~70%; reduction of the number of living cells ([2]; NCI-H1703, poly(I:C) alone 4 μg/ml): ~35%; IC50 ([2]; NCI-H1703, poly(I:C) used alone, 50% fewer cells than untreated control): 19.9 µg/mL; effect of siRNA inhibition of RIG-I, MDA-5 and PKR expression on poly(I:C) apoptotic activity ([6]; siRNA against RIG-I, MDA-5, PKR): has no effect; effect of siRNA inhibition of TLR3 or TRIF on poly(I:C)-induced apoptosis ([6]; siRNA against TLR3 or TRIF): inhibits apoptosis; IC50 ([1]; NCI-H292, poly(I:C) used alone, 50% fewer cells than untreated control): 14.3 µg/mL; fewer living cells ([5]; 100 μg/ml poly(I:C) alone): 26%; fraction of cells in apoptosis (annexin V-positive) ([4]; NCI-H1703, 100 μg/ml poly(I:C), 24 h, 11% in control wells, FIG. 2): ⅓; percentage of apoptotic cells (annexin V-positive) ([4]; NCI-H1703, 100 μg/ml poly(I:C), 24 h, caspase 8 expression inhibited by siRNA): ~20%; effect of suppression of caspase 9 expression on poly(I:C)-induced apoptosis ([4]; NCI-H1703, 100 μg/ml poly(I:C), 24 h, caspase 9 siRNA): no significant effect
